Among the data in US10494355B2, “Oxadiazole amine derivative compounds as histone deacetylase 6 inhibitor, and the pharmaceutical composition comprising the same” (Chong Kun Dang Pharmaceutical Corp., priority 2015, dated 2019) are IC50 values, retold here.

The target in one test is T1, human recombinant HDAC6 (Homo sapiens, UniProt Q9UBN7).
T1 construct: purchased Calbiochem 382180
T1 sequence (Q9UBN7 1-1215): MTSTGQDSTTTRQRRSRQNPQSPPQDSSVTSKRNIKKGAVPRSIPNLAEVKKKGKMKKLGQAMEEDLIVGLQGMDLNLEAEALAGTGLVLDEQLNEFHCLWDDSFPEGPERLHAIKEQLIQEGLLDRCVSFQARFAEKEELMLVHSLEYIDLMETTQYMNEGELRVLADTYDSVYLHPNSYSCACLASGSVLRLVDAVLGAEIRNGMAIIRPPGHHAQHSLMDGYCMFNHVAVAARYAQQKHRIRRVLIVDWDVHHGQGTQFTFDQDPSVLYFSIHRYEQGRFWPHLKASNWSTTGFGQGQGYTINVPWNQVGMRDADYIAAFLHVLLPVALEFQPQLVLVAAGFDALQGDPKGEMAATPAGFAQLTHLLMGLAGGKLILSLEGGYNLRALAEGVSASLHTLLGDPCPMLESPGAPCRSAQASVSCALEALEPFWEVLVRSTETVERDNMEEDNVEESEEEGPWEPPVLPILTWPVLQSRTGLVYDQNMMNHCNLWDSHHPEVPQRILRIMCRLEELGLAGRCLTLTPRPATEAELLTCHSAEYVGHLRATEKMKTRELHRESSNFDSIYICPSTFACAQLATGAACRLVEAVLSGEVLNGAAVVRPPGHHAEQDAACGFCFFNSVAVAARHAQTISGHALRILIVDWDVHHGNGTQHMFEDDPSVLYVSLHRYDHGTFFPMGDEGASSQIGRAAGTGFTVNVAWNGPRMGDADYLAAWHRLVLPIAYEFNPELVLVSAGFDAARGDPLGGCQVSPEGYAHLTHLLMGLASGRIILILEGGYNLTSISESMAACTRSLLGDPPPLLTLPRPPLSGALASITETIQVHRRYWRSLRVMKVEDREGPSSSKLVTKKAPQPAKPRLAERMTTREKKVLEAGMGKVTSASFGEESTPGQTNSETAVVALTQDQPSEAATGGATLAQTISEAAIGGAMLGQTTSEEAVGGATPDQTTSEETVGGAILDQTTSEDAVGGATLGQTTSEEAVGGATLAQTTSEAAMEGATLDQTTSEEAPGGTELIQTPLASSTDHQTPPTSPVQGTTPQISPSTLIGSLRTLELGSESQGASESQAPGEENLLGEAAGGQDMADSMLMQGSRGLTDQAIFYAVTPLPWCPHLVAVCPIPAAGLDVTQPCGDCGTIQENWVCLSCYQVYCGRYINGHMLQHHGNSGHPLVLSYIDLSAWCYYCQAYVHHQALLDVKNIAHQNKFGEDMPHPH
The test is described as follows: HDAC6 enzyme activity inhibition assay (HDAC Fluorimetric Drug Discovery Kit). It counts as biochemical. To be noted: 30° C. 60 minutes. The procedure: (§1) In order to examine the HDAC6 selectivity of the compounds of formula I of the present invention by HDAC1 and HDAC6 enzymatic activity inhibition assays, an experiment was performed using a conventional substance as a control.
(§2) HDAC enzyme activity was measured using a HDAC Fluorimetric Drug Discovery Kit (BML-AK511, 516, Enzo Life Science). For the HDAC1 enzyme activity test, human recombinant HDAC1 (BML-SE456) was used as an enzyme source, and Fluor de Lys®-“SIRT1 (BNL-KI177) was used as a substrate. A 5-fold dilution of the compound was seeded into a 96-well plate, and then 0.3 μg of the enzyme and 10 μM of the substrate were added to each well of the plate and allowed to react at 30° C. for 60 minutes. Then, Fluor de Lys®-Developer II (BML-KI176) was added thereto and allowed to react for 30 minutes, after which the fluorescence value (Ex 360, Em 460) was measured using a multi-plate reader (Flexstation 3, Molecular Device). The HDAC6 enzyme was tested using human recombinant HDAC6 (382180) (Calbiochem) according to the same protocol as the HDAC1 enzyme activity test method. Based on the resulting values, each IC50 value was calculated using GraphPad Prism4.0 program.

The next test addresses T2, human recombinant HDAC1 (Homo sapiens, UniProt Q13547).
T2 construct: purchased Enzo Life Science BML-SE456
Briefly: HDAC1 enzyme activity inhibition assay (HDAC Fluorimetric Drug Discovery Kit). Type of test: biochemical. The settings on record: human recombinant HDAC1, 10 μM substrate, 30° C. 60 minutes. The procedure:
as §1, §2

T2 sequence (Q13547 whole entry): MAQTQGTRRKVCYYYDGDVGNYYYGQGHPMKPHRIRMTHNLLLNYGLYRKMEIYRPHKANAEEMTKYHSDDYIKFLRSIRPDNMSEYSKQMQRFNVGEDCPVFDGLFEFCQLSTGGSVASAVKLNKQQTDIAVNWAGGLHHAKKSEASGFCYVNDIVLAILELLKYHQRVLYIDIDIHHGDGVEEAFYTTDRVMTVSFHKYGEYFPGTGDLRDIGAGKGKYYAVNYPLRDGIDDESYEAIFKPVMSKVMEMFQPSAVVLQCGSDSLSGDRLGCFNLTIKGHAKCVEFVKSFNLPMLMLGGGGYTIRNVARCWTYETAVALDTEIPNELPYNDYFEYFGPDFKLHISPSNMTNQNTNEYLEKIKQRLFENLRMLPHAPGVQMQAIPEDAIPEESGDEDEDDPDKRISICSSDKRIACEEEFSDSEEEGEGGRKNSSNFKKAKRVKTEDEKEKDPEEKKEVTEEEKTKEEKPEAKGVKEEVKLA

One may read the IC50 as the concentration needed to halve the response being measured. On to `Cc1ccc(S(=O)(=O)CC2(Nc3ncc(-c4nnc(C(F)F)o4)cn3)CCC2)cc1` [Compound 2026, 5-(5-(difluoromethyl)-1,3,4-oxadiazol-2-yl)-N-(1-(tosylmethyl)cyclobutyl)pyrimidin-2-amine], for which the IC50 on human recombinant HDAC6 and at human recombinant HDAC1 was > 10000 nM throughout.
`FC(F)(F)c1nnc(-c2cnc(NC3(c4ccc(Cl)cc4)CC3)nc2)o1` [Compound 2053, N-(1-(4-chlorophenyl)cyclopropyl)-5-(5-(trifluoromethyl)-1,3,4-oxadiazol-2-yl)pyrimidin-2-amine]: the values for the half-inhibitory concentration (IC50) on human recombinant HDAC6 and at human recombinant HDAC1 were 519 nM and > 10000 nM, respectively.
The matching figures for `FC(F)(F)c1nnc(-c2cnc(NC3(c4ccccn4)CCC3)nc2)o1` [Compound 1641, N-(1-(pyridin-2-yl)cyclobutyl)-5-(5-(trifluoromethyl)-1,3,4-oxadiazol-2-yl)pyrimidin-2-amine]: 58 nM and > 10000 nM.
For `Fc1ccc(F)c(C2(Nc3ncc(-c4nnc(C(F)F)o4)cn3)CCC2)c1` [Compound 1821, 5-(5-(difluoromethyl)-1,3,4-oxadiazol-2-yl)-N-(1-(2,5-difluorophenyl)cyclobutyl)pyrimidin-2-amine], the half-inhibitory concentration (IC50) is 32 nM at human recombinant HDAC6 and > 10000 nM at human recombinant HDAC1.
Regarding `FC(F)c1nnc(-c2cnc(NC3(c4ccc(OC(F)(F)F)cc4)CCC3)nc2)o1` [Compound 1822, 5-(5-(difluoromethyl)-1,3,4-oxadiazol-2-yl)-N-(1-(4-(trifluoromethoxy)phenyl)cyclobutyl)pyrimidin-2-amine], the IC50 was 282 nM at human recombinant HDAC6 and > 10000 nM on human recombinant HDAC1.
On the same counts, the results for `COc1ccc(C2(Nc3ncc(-c4nnc(C(F)(F)F)o4)cn3)CCC2)cc1` [Compound 1604, N-(1-(4-methoxyphenyl)cyclobutyl)-5-(5-(trifluoromethyl)-1,3,4-oxadiazol-2-yl)pyrimidin-2-amine] are 204 nM and > 10000 nM.
On the same counts, the results for `Fc1ccc(C2(Nc3ncc(-c4nnc(C(F)(F)F)o4)cn3)CCC2)c(Cl)c1` [Compound 1960, N-(1-(2-chloro-4-fluorophenyl)cyclobutyl)-5-(5-(trifluoromethyl)-1,3,4-oxadiazol-2-yl)pyrimidin-2-amine] are 1230 nM and > 10000 nM.
On the same counts, the results for `FC(F)(F)c1nnc(-c2cnc(NC3(c4ccc(Cl)cc4)CCC3)nc2)o1` [Compound 1618, N-(1-(4-chlorophenyl)cyclobutyl)-5-(5-(trifluoromethyl)-1,3,4-oxadiazol-2-yl)pyrimidin-2-amine] are 267 nM and > 10000 nM.
Take `FC(F)(F)c1ccc(C2(Nc3ncc(-c4nnc(C(F)(F)F)o4)cn3)CCC2)cc1` [Compound 2044, 5-(5-(trifluoromethyl)-1,3,4-oxadiazol-2-yl)-N-(1-(4-(trifluoromethyl)phenyl)cyclobutyl)pyrimidin-2-amine]: the half-maximal inhibitory concentration (IC50) on human recombinant HDAC6 was 1740 nM; on human recombinant HDAC1 it was > 10000 nM.
Consider `FC(F)c1nnc(-c2cnc(NC3(c4ccsc4)CCC3)nc2)o1` [Compound 2038, 5-(5-(difluoromethyl)-1,3,4-oxadiazol-2-yl)-N-(1-(thiophen-3-yl)cyclobutyl)pyrimidin-2-amine], for which the half-inhibitory concentration (IC50) at human recombinant HDAC6 was 111 nM; at human recombinant HDAC1 it was > 10000 nM.
The matching figures for `Fc1cc(F)cc(C2(Nc3ncc(-c4nnc(C(F)F)o4)cn3)CCC2)c1` [Compound 1819, 5-(5-(difluoromethyl)-1,3,4-oxadiazol-2-yl)-N-(1-(3,5-difluorophenyl)cyclobutyl)pyrimidin-2-amine]: 70 nM and > 10000 nM.
Turning to `FC(F)c1nnc(-c2cnc(NC3(c4ccccc4)CCCC3)nc2)o1` [Compound 1579, 5-(5-(difluoromethyl)-1,3,4-oxadiazol-2-yl)-N-(1-phenylcyclopentyl)pyrimidin-2-amine], the IC50 at human recombinant HDAC6 is 46 nM; on human recombinant HDAC1, > 10000 nM.
On the same counts, the results for `Fc1ccc(C2(Nc3ncc(-c4nnc(C(F)F)o4)cn3)CCC2)c(Cl)c1` [Compound 1959, N-(1-(2-chloro-4-fluorophenyl)cyclobutyl)-5-(5-(difluoromethyl)-1,3,4-oxadiazol-2-yl)pyrimidin-2-amine] are 163 nM and > 10000 nM.
As to `FC(F)c1nnc(-c2cnc(NC3(c4ccccc4C(F)(F)F)CCC3)nc2)o1` [Compound 2042, 5-(5-(difluoromethyl)-1,3,4-oxadiazol-2-yl)-N-(1-(2-(trifluoromethyl)phenyl)cyclobutyl)pyrimidin-2-amine], the IC50 was 173 nM on human recombinant HDAC6 and > 10000 nM at human recombinant HDAC1.
On to `Fc1ccc(C2(Nc3ncc(-c4nnc(C(F)F)o4)cn3)CC2)cc1Cl` [Compound 1722, N-(1-(3-chloro-4-fluorophenyl)cyclopropyl)-5-(5-(difluoromethyl)-1,3,4-oxadiazol-2-yl)pyrimidin-2-amine], for which the values for the half-inhibitory concentration (IC50) at human recombinant HDAC6 and on human recombinant HDAC1 were 29 nM and > 10000 nM, respectively.
On the same counts, the results for `Fc1ccc(C2(Nc3ncc(-c4nnc(C(F)F)o4)cn3)CCC2)cc1` [Compound 1611, 5-(5-(difluoromethyl)-1,3,4-oxadiazol-2-yl)-N-(1-(4-fluorophenyl)cyclobutyl)pyrimidin-2-amine] are 38 nM and > 10000 nM.
The matching figures for `FC(F)(F)c1nnc(-c2cnc(NC3(c4ccccc4Cl)CCC3)nc2)o1` [Compound 1617, N-(1-(2-chlorophenyl)cyclobutyl)-5-(5-(trifluoromethyl)-1,3,4-oxadiazol-2-yl)pyrimidin-2-amine]: 211 nM and > 10000 nM.
On the same counts, the results for `COc1cccc(C2(Nc3ncc(-c4nnc(C(F)F)o4)cn3)CCC2)c1` [Compound 1605, 5-(5-(difluoromethyl)-1,3,4-oxadiazol-2-yl)-N-(1-(3-methoxyphenyl)cyclobutyl)pyrimidin-2-amine] are 44 nM and > 10000 nM.
`Fc1ccc(C2(Nc3ncc(-c4nnc(C(F)F)o4)cn3)CC2)cc1` [Compound 1711, 5-(5-(difluoromethyl)-1,3,4-oxadiazol-2-yl)-N-(1-(4-fluorophenyl)cyclopropyl)pyrimidin-2-amine]: the concentration for half-maximal inhibition (IC50) was 26 nM on human recombinant HDAC6 and > 10000 nM at human recombinant HDAC1.
The matching figures for `Fc1cccc(C2(Nc3ncc(-c4nnc(C(F)F)o4)cn3)CCC2)c1` [Compound 1607, 5-(5-(difluoromethyl)-1,3,4-oxadiazol-2-yl)-N-(1-(3-fluorophenyl)cyclobutyl)pyrimidin-2-amine]: 32 nM and > 10000 nM.
The matching figures for `Cc1ccc(C2(Nc3ncc(-c4nnc(C(F)F)o4)cn3)CCC2)cc1` [Compound 1675, 5-(5-(difluoromethyl)-1,3,4-oxadiazol-2-yl)-N-(1-(p-tolyl)cyclobutyl)pyrimidin-2-amine]: 39 nM and > 10000 nM.
The matching figures for `FC(F)c1nnc(-c2cnc(NC3(c4ccccc4)CCNCC3)nc2)o1` [Compound 1678, 5-(5-(difluoromethyl)-1,3,4-oxadiazol-2-yl)-N-(4-phenylpiperidin-4-yl)pyrimidin-2-amine]: 225 nM and > 10000 nM.
As to `Fc1cccc(C2(Nc3ncc(-c4nnc(C(F)(F)F)o4)cn3)CCC2)c1` [Compound 1608, N-(1-(3-fluorophenyl)cyclobutyl)-5-(5-(trifluoromethyl)-1,3,4-oxadiazol-2-yl)pyrimidin-2-amine], the IC50 at human recombinant HDAC6 is 154 nM; on human recombinant HDAC1, > 10000 nM.
